In one data set the test system is Miapaca2/18.2. In words: Efficacy against subcutaneous xenograft tumors of human pancreatic cancer Miapaca2/18.2 in mice. It counts as in vivo. The protocol:
NOD-Scid mice (7 weeks old, female) were purchased from Shanghai Lingchang Biotechnology Co., Ltd. Each mouse was subcutaneously inoculated with 1 × 10^7 Miapaca2/18.2 cells. When tumor volume reached 60 mm^3 to 150 mm^3, the mice were grouped according to tumor volume and then the medicaments were administered intraperitoneally (IP) at an injection volume of 0.1 mL per 10 g of body weight.
A general note: Xenograft models place foreign cells or tissue in a host animal.

A further data set concerns KATO III/18.2. In words: Efficacy against subcutaneous xenograft tumors of human gastric cancer KATO III/18.2 in mice. Format: in vivo, NOD-Scid mice. Here is the method:
NOD-Scid mice (7 weeks old, female) were purchased from Shanghai Lingchang Biotechnology Co., Ltd. Each mouse was subcutaneously inoculated with 1 × 10^7 KATO III/18.2 cells. When tumor volume reached 60 mm^3 to 150 mm^3, the mice were grouped according to tumor volume, and then the medicaments were administered intraperitoneally (IP) at an injection volume of 0.1 mL per 10 g of body weight.

Each structure is given as a SMILES string.

Regarding `Nc1ccn([C@@H]2O[C@H](CO)[C@@H](O)C2(F)F)c(=O)n1` [gemcitabine], in the data set with Miapaca2/18.2 (Day 14 (first dose Day 0), M5 monoclonal antibody or Human IgG1 10 mg/kg IP BIW 4 times, gemcitabine 75 mg/kg IP Q4D 2 times), the tumor growth inhibition amounted to 53%. This molecule also came in with a maximum weight loss with Miapaca2/18.2 (mice, on Day 7) of 9.2%. The mice died result in the data set on Miapaca2/18.2 (ten mice per group) is given as “one out of ten”.
Regarding `O=C1[O][Pt]2([NH][C@@H]3CCCC[C@H]3[NH]2)[O]C1=O` [oxaliplatin], the tumor growth inhibition with KATO III/18.2 (Day 23 (first dose Day 0), M5 monoclonal antibody or Human IgG1 10 mg/kg IP BIW 6 times, oxaliplatin 8 mg/kg IP Q4D 3 times) is reported as 31%. The molecule further returned a maximum weight losses in the data set on KATO III/18.2 (mice, on Day 10) of 5.5%.

(Values after patent publication EP4796126A1, “COMBINATION OF CLDN18_2 ANTIBODY AND CHEMOTHERAPEUTIC DRUG AND USE THEREOF” (Jiangsu Aosaikang Biopharmaceutical Co., Ltd., priority 2023, dated 2025).)
